# B1: IFN-γ: cytokine interferon-gamma (protein, UniProt P01579 24-161, looked up)
# Interferon gamma: QDPYVKEAENLKKYFNAGHSDVADNGTLFLGILKNWKEESDRKIMQSQIVSFYFKLFKNFKDDQSIQKSVETIKEDMNVKFFNSNKKKRDDFEKLTNYSVTDLNVQRKAIHELIQVMAELSPAAKTGKRKRSQMLFRG
# What was measured:
# [1] = system: Vaccinia virus (strain WR); set-up: species or system Balb/C mice; details: mouse, in vivo
# [2] = system: murine macrophages (RAW 264.7); type: cell-based
# vaccinia virus [3] = type: cell-based
# human neutrophils [4] = type: cell-based; details: cytokine-treated neutrophils; donor-dependent; FIGS. 10 and 11
# VEE virus [5] = system: VEE virus; set-up: species or system mice; details: mouse, in vivo
# B. anthracis (Sterne) = system: B. anthracis (Sterne); set-up: species or system A/J mice; details: mouse, in vivo; for mice still alive: ip
# Colon-26 cells = system: Colon-26 cells; set-up: species or system Balb/c mice; details: mouse, in vivo
# VEE virus [6] = system: VEE virus; set-up: species or system mice; details: mouse, in vivo; remark: listed apart in the source
# [7] = system: Bacillus anthracis Sterne strain; set-up: species or system DBA/2 mice; details: mouse, in vivo
# human neutrophils [8] = type: cell-based; details: for IL-8 production by neutrophils: cytokine-stimulated, FIG. 12
# [9] = system: primary murine splenocytes; set-up: species or system Balb/c mice; details: mouse, in vivo
# [10] = system: murine peritoneal exudate cells; set-up: species or system Balb/c mice; details: mouse, in vivo
# vaccinia virus [11] = type: in vivo
# murine PECs = type: cell-based, BALB/c mice
molecule,measurement,setting,value
IFN-α,mice remained alive,[1],95%
same,mice still alive,[1],95%
"CC(=O)O.CNC(=N)NCCC[C@H](N)C(=O)O [L-NMA, N^G-monomethyl-L-arginine acetate, reference compound]",NO production,[2],inhibit NO production
same,VV replication,vaccinia virus [3],restored VV replication
IL-8: cytokine,superoxide anion levels,human neutrophils [4],increased superoxide anion levels
IL-12: cytokine,reduction of VEE titers in the lungs compared to control animals,VEE virus [5],~1.5 log10
same,superoxide anion levels,human neutrophils [4],increased superoxide anion levels
same,survival,B. anthracis (Sterne),increased survival
same,cytolysis by NK/NKT cells,Colon-26 cells,significant increases
same,survival of lethally VEE-infected mice,VEE virus [6],"increased survival, but not significantly"
O=C(O)c1cn(C2CC2)c2cc(N3CCNCC3)c(F)cc2c1=O [ciprofloxacin],survival,[7],40%
platelet activating factor [PAF],GM-CSF-induced IL-8 production,"human neutrophils [8]; PAF added to GM-CSF, FIG. 13",enhances
same,IL-8 production by neutrophils,human neutrophils [8],increased IL-8 production moderately
GM-CSF,superoxide anion levels,human neutrophils [4],increased superoxide anion levels
same,survival,B. anthracis (Sterne),increased survival
same,mice still alive,B. anthracis (Sterne),25%
same,IL-8 production by neutrophils,human neutrophils [8],significantly increased
same,CD25 marker expression,[9],significant activation
B1,nitric oxide production by PECs,[10],significant increases
same,reduction of VEE titers in the lungs compared to control animals,VEE virus [5],~0.5 log10
same,vaccinia virus-induced cytopathic effect,vaccinia virus [11],appeared to be reduced
same,superoxide anion levels,human neutrophils [4],increased superoxide anion levels
same,nitric oxide production,[2],increased nitric oxide production dramatically
same,effect of cytokine on cell wall-enhanced vaccinia virus clearance,vaccinia virus [3],possible weak synergetic effect
same,plaque forming units relative to cell wall treatment,vaccinia virus [3],reduced the number of plaque forming units even further
same,reduction in VV titer,vaccinia virus [3],95%
same,survival,B. anthracis (Sterne),increased survival
same,mice still alive,B. anthracis (Sterne),10%
same,cytolysis by NK/NKT cells,Colon-26 cells,moderate increases
same,survival of lethally VEE-infected mice,VEE virus [6],increased survival
same,increase of cell wall-induced nitric oxide production,murine PECs,10 to 20 µM
same,mice remained alive,[1],100%
same,mice still alive,[1],100%
same,protection against lethal VV (strain WR) challenge,[1],complete protection
